Results as given in patent publication EP0347459A1, “CEPHALOSPORIN COMPOUNDS OR THEIR SALTS, PROCESS FOR THEIR PREPARATION, AND PHARMACEUTICAL COMPOSITIONS” (TEIJIN LIMITED, priority 1987, dated 1988).
Values after ≈ are worked out from the molar mass of the structure shown. Where two headings read alike, the source gives them in different places.

Columns and labels:
Type in all cases: cell-based
[1] = tested on: E.cloacae 963; assay: In vitro antibacterial activity, agar disc dilution method; conditions: read-out: minimum growth inhibitory concentration (MIC)
Description: (§1) An in vitro antibacterial activity was measured by an agar disc dilution method.
(§2) Varied test bacteria were cultivated overnight in triptophane-soybroth. A Mueller Hinton agar containing the compound of this invention in varied concentrations was streaked with one platinum loopful of each of the bacteria (number of living cells 10^6/ml).

[2] = tested on: K.pneumoniae PCI602; assay: as above; conditions: Klebsiella pneumoniae, read-out: minimum growth inhibitory concentration (MIC)
Description: as §1, §2

[3] = tested on: M.luteus ATCC9341; assay: as above; conditions: Micrococcus luteus, read-out: minimum growth inhibitory concentration (MIC)
Description: as §1, §2

[4] = tested on: P.aeruginosa IFO3445; assay: as above; conditions: Pseudomonas aeruginosa, read-out: minimum growth inhibitory concentration (MIC)
Description: as §1, §2

[5] = tested on: P.aeruginosa NCTC1049; assay: as above; conditions: Pseudomonas aeruginosa, read-out: minimum growth inhibitory concentration (MIC)
Description: as §1, §2

[6] = tested on: P.aeruginosa PAD1; assay: as above; conditions: Pseudomonas aeruginosa, read-out: minimum growth inhibitory concentration (MIC)
Description: as §1, §2

[7] = tested on: P.morganii IFO3445; assay: as above; conditions: Morganella morganii, read-out: minimum growth inhibitory concentration (MIC)
Description: as §1, §2

[8] = tested on: P.vulgalis OX-11; assay: as above; conditions: read-out: minimum growth inhibitory concentration (MIC)
Description: as §1, §2

[9] = tested on: S. aureus Terajima; assay: as above; conditions: Staphylococcus aureus, read-out: minimum growth inhibitory concentration (MIC)
Description: as §1, §2

[10] = tested on: S.aureus 209p NIHJ JC1; assay: as above; conditions: Staphylococcus aureus, read-out: minimum growth inhibitory concentration (MIC)
Description: as §1, §2

[11] = tested on: S.enteritidis G14; assay: as above; conditions: Salmonella enterica, read-out: minimum growth inhibitory concentration (MIC)
Description: as §1, §2

[12] = tested on: S.marcescens IAM1184; assay: as above; conditions: Serratia marcescens, read-out: minimum growth inhibitory concentration (MIC)
Description: as §1, §2

[13] = tested on: S.pyogenes Cook; assay: as above; conditions: Streptococcus pyogenes, read-out: minimum growth inhibitory concentration (MIC)
Description: as §1, §2

[14] = tested on: S.typhi 901; assay: as above; conditions: Salmonella enterica, 16 h, read-out: minimum growth inhibitory concentration (MIC)
Description: as §1, §2

[15] = tested on: P.aeruginosa 0-11; assay: MIC values of 10 kinds of Pseudomonas aeruginosa; conditions: Pseudomonas aeruginosa, 011, 16 h, read-out: MIC values
Description: as §1, §2
(§3) MIC values of 10 kinds of Pseudomonas aeruginosa were measured for Compound III, Comparative Example B and CAZ.

[16] = tested on: P.aeruginosa 64; assay: MIC values of 10 kinds of Pseudomonas aeruginosa; conditions: read-out: MIC values
Description: as §1, §2, §3

[17] = tested on: P.aeruginosa 88; assay: MIC values of 10 kinds of Pseudomonas aeruginosa; conditions: read-out: MIC values
Description: as §1, §2, §3

[18] = tested on: P.aeruginosa ATCC27318; assay: MIC values of 10 kinds of Pseudomonas aeruginosa; conditions: read-out: MIC values
Description: as §1, §2, §3

[19] = tested on: P.aeruginosa ATCC27577; assay: MIC values of 10 kinds of Pseudomonas aeruginosa; conditions: read-out: MIC values
Description: as §1, §2, §3

[20] = tested on: P.aeruginosa N-26; assay: MIC values of 10 kinds of Pseudomonas aeruginosa; conditions: N26, 16 h, read-out: MIC values
Description: as §1, §2, §3

[21] = tested on: P.aeruginosa N-2; assay: MIC values of 10 kinds of Pseudomonas aeruginosa; conditions: N2, 16 h, read-out: MIC values
Description: as §1, §2, §3

[22] = tested on: P.aeruginosa N-3; assay: MIC values of 10 kinds of Pseudomonas aeruginosa; conditions: N3, 16 h, read-out: MIC values
Description: as §1, §2, §3

[23] = tested on: P.aeruginosa NO. 97; assay: MIC values of 10 kinds of Pseudomonas aeruginosa; conditions: read-out: MIC values
Description: as §1, §2, §3

[24] = tested on: P.aeruginosa Tid53; assay: MIC values of 10 kinds of Pseudomonas aeruginosa; conditions: read-out: MIC values
Description: as §1, §2, §3

[25] = Enterobacter cloacae, E.cloacae 963, Mueller Hinton agar, 10^6/ml, 37°C for 16 hours
[26] = K.pneumoniae PCI602, Mueller Hinton agar, 10^6/ml, 37°C for 16 hours
[27] = M.luteus ATCC9341, Mueller Hinton agar, 10^6/ml, 37°C for 16 hours
[28] = P.aeruginosa IFO3445, Mueller Hinton agar, 10^6/ml, 37°C for 16 hours
[29] = P.aeruginosa NCTC1049, Mueller Hinton agar, 10^6/ml, 37°C for 16 hours
[30] = P.aeruginosa PAD1, Mueller Hinton agar, 10^6/ml, 37°C for 16 hours
[31] = P.morganii IFO3445, Mueller Hinton agar, 10^6/ml, 37°C for 16 hours
[32] = P.vulgalis OX-11, Mueller Hinton agar, 10^6/ml, 37°C for 16 hours
[33] = S. aureus Terajima, Mueller Hinton agar, 10^6/ml, 37°C for 16 hours
[34] = S.aureus 209p NIHJ JC1, Mueller Hinton agar, 10^6/ml, 37°C for 16 hours
[35] = S.enteritidis G14, Mueller Hinton agar, 10^6/ml, 37°C for 16 hours
[36] = S.marcescens IAM1184, Mueller Hinton agar, 10^6/ml, 37°C for 16 hours
[37] = S.pyogenes Cook, Mueller Hinton agar, 10^6/ml, 37°C for 16 hours

With `CC(C)(O/N=C(\C(=O)N[C@@H]1C(=O)N2C(C(=O)[O-])=C(C[n+]3ccccc3)CS[C@H]12)c1csc(N)n1)C(=O)O` [CAZ, (6R,7R)-7-[(Z)-2-(2-amino-1,3-thiazol-4-yl)-2-(2-carbcxypropyl-2-yloxyimino)acetamide]-3-(l-pyridinium)methyl-3-cephem-4-carboxylate, reference compound] the MIC ([1]; Enterobacter cloacae, 963, 16 h) was 0.05 µg/mL (≈ 0.0915 µM), the MIC ([2]; PCI602, 16 h) was 0.025 µg/mL (≈ 0.0457 µM) and the MIC ([3]; ATCC9341, 16 h) was 0.4 µg/mL (≈ 0.732 µM). The MIC ([4]; IFO3445, 16 h) was 0.4 µg/mL (≈ 0.732 µM), the MIC ([5]; NCTC1049, 16 h) was 0.4 µg/mL (≈ 0.732 µM) and the MIC ([6]; PAD1, 16 h) was 0.4 µg/mL (≈ 0.732 µM). It also gave an MIC ([7]; IFO3445, 16 h) of 0.0125 µg/mL (≈ 0.0229 µM), an MIC ([8]; 16 h) of 0.005 µg/mL (≈ 0.00915 µM) and an MIC ([9]; 16 h) of 1.6 µg/mL (≈ 2.93 µM). For the same molecule, the MIC ([10]; 16 h) was 6.3 µg/mL (≈ 11.5 µM), the MIC ([11]; ENTERITIDIS, 16 h) was 0.005 µg/mL (≈ 0.00915 µM) and the MIC ([12]; IAM1184, 16 h) was 0.025 µg/mL (≈ 0.0457 µM). For the same molecule, the MIC ([13]; 16 h) was 0.4 µg/mL (≈ 0.732 µM), the MIC [14] was 0.1 µg/mL (≈ 0.183 µM) and the MIC [15] was 3.1 µg/mL (≈ 5.67 µM). It also gave an MIC ([16]; Pseudomonas aeruginosa, 64, 16 h) of 3.1 µg/mL (≈ 5.67 µM), an MIC ([17]; Pseudomonas aeruginosa, 88, 16 h) of 0.8 µg/mL (≈ 1.46 µM) and an MIC ([18]; ATCC27318, 16 h) of 1.6 µg/mL (≈ 2.93 µM). It also gave an MIC ([19]; ATCC27577, 16 h) of 0.2 µg/mL (≈ 0.366 µM), an MIC [20] of 1.6 µg/mL (≈ 2.93 µM) and an MIC [21] of 0.8 µg/mL (≈ 1.46 µM). For the same molecule, the MIC [22] was 1.6 µg/mL (≈ 2.93 µM), the MIC ([23]; NO.97, 16 h) was 3.1 µg/mL (≈ 5.67 µM) and the MIC ([24]; TID53, 16 h) was 6.3 µg/mL (≈ 11.5 µM).
For `CON=C(C(=O)NC1C(=O)N2C(C(=O)[O-])=C(C[n+]3ccc4cc(O)c(O)cc4c3)CSC12)c1csc(N)n1` [Comparative Compound A, (6R,7R)-7-[(Z)-2-(2-amino-l,3-thiazol-4-yl)-2-methoxyiminolacetamide-3-(6,7-dihydroxy-2-isoquinolinium)methyl-3-cephem-4-carboxylate, reference compound], the MIC [1, 25] was 0.025 µg/mL (≈ 0.0449 µM), the MIC [2, 26] was 0.005 µg/mL (≈ 0.00898 µM) and the MIC [3, 27] was 0.4 µg/mL (≈ 0.719 µM). For the same molecule, the MIC [4, 28] was 50 µg/mL (≈ 89.8 µM), the MIC [5, 29] was 0.2 µg/mL (≈ 0.359 µM) and the MIC [6, 30] was 50 µg/mL (≈ 89.8 µM). For the same molecule, the MIC [7, 31] was 0.1 µg/mL (≈ 0.18 µM), the MIC [8, 32] was 0.005 µg/mL (≈ 0.00898 µM) and the MIC [9, 33] was 0.4 µg/mL (≈ 0.719 µM). It also gave an MIC [10, 34] of 0.4 µg/mL (≈ 0.719 µM), an MIC [11, 35] of 0.005 µg/mL (≈ 0.00898 µM) and an MIC [12, 36] of 0.005 µg/mL (≈ 0.00898 µM). The MIC [13, 37] was 0.2 µg/mL (≈ 0.359 µM) and the MIC [14] was 0.005 µg/mL (≈ 0.00898 µM).
In the case of `CC(C)(ON=C(C(=O)NC1C(=O)N2C(C(=O)[O-])=C(C[n+]3ccc4cc(O)c(O)cc4c3)CSC12)c1csc(N)n1)C(=O)O` [Comparative Compound B, (6R,7R)-7-[(Z)-2-(2-amino-l,3-thiazol-4-yl)-2-(2-carboxypropyl-2-yloxyimino)acetamide]-3-(6,7-dihydroxy-2-isoquinolinium)methyl-3-cephem-4-carboxylate, reference compound], the MIC [1, 25] is reported as 0.005 µg/mL (≈ 0.00795 µM), the MIC [2, 26] is reported as 0.005 µg/mL (≈ 0.00795 µM) and the MIC [3, 27] is reported as 3.1 µg/mL (≈ 4.93 µM). For the same molecule, the MIC [4, 28] was 0.025 µg/mL (≈ 0.0398 µM), the MIC [5, 29] was 0.0125 µg/mL (≈ 0.0199 µM) and the MIC [6, 30] was 0.025 µg/mL (≈ 0.0398 µM). It also gave an MIC [7, 31] of 0.005 µg/mL (≈ 0.00795 µM), an MIC [8, 32] of 0.005 µg/mL (≈ 0.00795 µM) and an MIC [9, 33] of 3.1 µg/mL (≈ 4.93 µM). It also gave an MIC [10, 34] of 12.5 µg/mL (≈ 19.9 µM), an MIC [11, 35] of 0.005 µg/mL (≈ 0.00795 µM) and an MIC [12, 36] of 0.005 µg/mL (≈ 0.00795 µM). For the same molecule, the MIC [13, 37] was 1.6 µg/mL (≈ 2.55 µM), the MIC [14] was 0.005 µg/mL (≈ 0.00795 µM) and the MIC ([15]; P.aeruginosa 0-11 (Table II)) was 0.05 µg/mL (≈ 0.0795 µM). It also gave an MIC ([16]; Pseudomonas aeruginosa, 16 h, P.aeruginosa 64 (Table II)) of 0.05 µg/mL (≈ 0.0795 µM), an MIC ([17]; Pseudomonas aeruginosa, 16 h, P.aeruginosa 88 (Table II)) of 0.025 µg/mL (≈ 0.0398 µM) and an MIC ([18]; 16 h, P.aeruginosa ATCC27318 (Table II)) of 0.05 µg/mL (≈ 0.0795 µM). The MIC ([19]; 16 h, P.aeruginosa ATCC27577 (Table II)) was 0.005 µg/mL (≈ 0.00795 µM), the MIC ([20]; P.aeruginosa N-26 (Table II)) was 0.1 µg/mL (≈ 0.159 µM) and the MIC ([21]; P.aeruginosa N-2 (Table II)) was 0.05 µg/mL (≈ 0.0795 µM). It also gave an MIC ([22]; P.aeruginosa N-3 (Table II)) of 0.05 µg/mL (≈ 0.0795 µM), an MIC ([23]; 16 h, P.aeruginosa NO. 97 (Table II)) of 0.025 µg/mL (≈ 0.0398 µM) and an MIC ([24]; 16 h, P.aeruginosa Tid53 (Table II)) of 0.05 µg/mL (≈ 0.0795 µM).
